{"source": "patent US7763615B2", "about": "“Ecteinascidin analogs for use as antitumour agents” (priority 2001, dated 2010)", "key": {"[1]": {"test_system": "L8, normal rat skeletal muscle cells", "conditions": "24 h", "experimental": "(§2) In order to assess the cytotoxicity of the drugs to normal cells, we used 96 well plates plated at a density of 5000 cells per well (except for the FDC-P1 which were plated at 12,000 cells per well) with normal cell lines (ATCC, Table 1) maintained as per the directions of the ATCC: AML-12, normal mouse liver cells; NRK-52E, normal rat kidney cells; L8, normal rat skeletal muscle cells; FDC-P1, normal mouse myelogeous stem cells; and H9c2 (2-1), normal rat cardiac muscle cells. The cells in each plate were permitted to settle overnight before adding the test drug.\n(§3) To each well (100 μl medium) 10 μl of drug in media was added at varying concentrations (1×10-10-0.01 mg/ml final concentration) and further incubated overnight at 37° C. with 5% CO2. After 24 h the following assays were performed. All experiments were repeated at least 3 times and were assayed in duplicate.\n(§4) MTS assay (CellTiter 96 aqueous) was performed according to the manufacturer's (Promega) directions (for all cell types). Cell viability (mitochondrial activity) is determined via enzymatic conversion of the formazan substrate."}, "(HEPG2)": {"test_system": "(HEPG2)", "conditions": "human, 24 h, 30 μM", "experimental": "The toxic potential of compounds was investigated in vitro using primary human hepatocytes (HEPG2). The compounds were tested at 30 μM in duplicate with a final DMSO concentration of 1%. After incubation during 24 h at 37° C. the cell viability was determined by the conversion of oxided alarmarBlue (resazurin) to reduced alarmarBlue (resorufin). Chlorpromazine was used as reference compound. Results are expressed as a percent of inhibition of control values."}, "[2]": {"test_system": "FDC-P1, normal mouse myelogeous stem cells", "conditions": "24 h"}, "[3]": {"test_system": "H9c2 (2-1), normal rat cardiac muscle cells", "conditions": "24 h", "experimental": "as §2, §3, §4"}, "SK-OV3": {"test_system": "SK-OV3", "experiment": "Inhibition of cells growth by colorimetric assay (SRB), SK-OV3", "format": "cell-based", "outline": "(§1)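 Continuous 48 h drug exposure of attached human cancer cells (5×10^3/well, RPMI 1640, 10% FBS), doses 10 to 10^−8 μg/ml. Endpoint is SRB staining after TCA fixation, read at 490 nm. GI, TGI and LC calculated from triplicate means.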"}, "CYP2D6": {"target": "CYP2D6 (Homo sapiens, UniProt P10635)", "sequence (P10635 whole entry)": "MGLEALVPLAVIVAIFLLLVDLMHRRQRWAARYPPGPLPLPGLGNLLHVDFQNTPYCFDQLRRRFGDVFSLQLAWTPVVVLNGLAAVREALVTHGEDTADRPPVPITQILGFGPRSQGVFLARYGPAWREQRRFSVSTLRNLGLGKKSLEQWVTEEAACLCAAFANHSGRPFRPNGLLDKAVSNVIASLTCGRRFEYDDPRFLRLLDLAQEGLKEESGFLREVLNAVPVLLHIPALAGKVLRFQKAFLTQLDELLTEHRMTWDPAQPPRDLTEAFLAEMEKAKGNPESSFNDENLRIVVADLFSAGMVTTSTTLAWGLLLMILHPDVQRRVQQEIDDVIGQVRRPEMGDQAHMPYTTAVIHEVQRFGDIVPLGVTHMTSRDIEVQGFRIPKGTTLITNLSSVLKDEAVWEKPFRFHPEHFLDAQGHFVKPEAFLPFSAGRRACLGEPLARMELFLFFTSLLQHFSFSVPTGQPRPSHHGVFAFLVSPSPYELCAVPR", "experiment": "in vitro", "conditions": "CYP2D6 (% inhibition)"}, "[4]": {"conditions": "s9, 60 min, 1 μM", "experimental": "The metabolic stability was determined used human liver S9 homogenate that including both microsomal and cytosolic enzyme activities. The test compound was diluted in methanol (0.625%) and acetonitrile (0.625%) at the concentration 1 μM and incubated in the human liver pool (protein=1 mg/mL) during 60 min at 37° C. Peak areas corresponding to all analytes (metabolic products) were determined by HPLC-MS/MS. Areas were recorded and ratios of peak areas of analytes to that of internal standard for each analyte were determined. The ratio of precursor compound remaining after 60 minutes and the amount remaining at time zero, expressed as percent, are reported as metabolic stability. Higher values mean higher metabolic stability."}, "CYP3A4": {"target": "CYP3A4 (Homo sapiens, UniProt P08684)", "sequence (P08684 whole entry)": "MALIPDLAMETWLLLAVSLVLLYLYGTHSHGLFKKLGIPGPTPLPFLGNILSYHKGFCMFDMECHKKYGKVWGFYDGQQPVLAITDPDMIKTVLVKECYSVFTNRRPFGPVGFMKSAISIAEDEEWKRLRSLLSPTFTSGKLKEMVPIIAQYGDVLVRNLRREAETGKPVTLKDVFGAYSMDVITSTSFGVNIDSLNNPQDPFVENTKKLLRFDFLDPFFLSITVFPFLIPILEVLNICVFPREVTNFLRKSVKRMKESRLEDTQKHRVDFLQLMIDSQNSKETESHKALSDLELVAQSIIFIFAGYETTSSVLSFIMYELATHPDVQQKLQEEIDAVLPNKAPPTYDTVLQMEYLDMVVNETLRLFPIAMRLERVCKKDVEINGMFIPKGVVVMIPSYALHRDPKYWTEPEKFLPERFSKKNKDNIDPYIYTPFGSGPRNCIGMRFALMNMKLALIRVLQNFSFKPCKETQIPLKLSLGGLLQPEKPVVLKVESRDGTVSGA", "experiment": "in vitro", "conditions": "CYP3A4 (% inhibition)"}, "DU145": {"test_system": "DU145", "experiment": "cells", "format": "cell-based", "conditions": "Homo sapiens, DU-145, 48 h", "outline": "as §1"}, "A549": {"test_system": "A549", "experiment": "cells", "format": "cell-based", "conditions": "Homo sapiens, A549, 48 h", "outline": "as §1"}, "LOVO": {"test_system": "LOVO", "experiment": "cells", "format": "cell-based", "conditions": "Homo sapiens, LoVo, 48 h", "outline": "as §1"}, "IGROV-ET": {"test_system": "IGROV-ET", "experiment": "cells", "format": "cell-based", "conditions": "Homo sapiens, 48 h", "outline": "as §1"}, "PANC-1": {"test_system": "PANC-1", "experiment": "cells", "format": "cell-based", "conditions": "Homo sapiens, PANC-1, 48 h", "outline": "as §1"}, "LOVO-DOX": {"test_system": "LOVO-DOX", "experiment": "cells", "format": "cell-based", "conditions": "Homo sapiens, 48 h", "outline": "as §1"}, "LNCAP": {"test_system": "LNCAP", "experiment": "cells", "format": "cell-based", "conditions": "Homo sapiens, LNCaP, 48 h", "outline": "as §1"}, "HT29": {"test_system": "HT29", "experiment": "cells", "format": "cell-based", "conditions": "Homo sapiens, HT-29, 48 h", "outline": "as §1"}, "IGROV": {"test_system": "IGROV", "experiment": "cells", "format": "cell-based", "conditions": "Homo sapiens, 48 h", "outline": "as §1"}, "MEL-28": {"test_system": "MEL-28", "experiment": "cells", "format": "cell-based", "conditions": "Homo sapiens, SK-MEL-28, 48 h", "outline": "as §1"}, "SK-BR3": {"test_system": "SK-BR3", "experiment": "cells", "format": "cell-based", "conditions": "Homo sapiens, SK-BR-3, 48 h", "outline": "as §1"}, "K562": {"test_system": "K562", "experiment": "cells", "format": "cell-based", "conditions": "Homo sapiens, K562, 48 h", "outline": "as §1"}, "physchem": {"experiment": "physchem", "conditions": "pH 7.4, aqueous buffer, Solubility Dulbecco's PBS pH 7.4"}, "H-MEC-1": {"test_system": "H-MEC-1", "experiment": "Inhibition of cells growth by colorimetric assay (SRB), H-MEC-1", "format": "cell-based", "conditions": "Homo sapiens, HMEC-1, 48 h", "outline": "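SRB colorimetric growth assay: 5×10^3 cells/well, 18 h attachment, 48 h continuous compound exposure at 10–10^−8 μg/ml in DMSO/EtOH/PBS. TCA fixation, SRB stain, OD 490 nm; triplicate wells, GI, TGI and LC derived.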"}, "[5]": {"conditions": "IGROV-ET, 48 hours exposure, SRB"}, "[6]": {"conditions": "LOVO-DOX, 48 hours exposure, SRB"}, "[7]": {"conditions": "H-MEC-1, 48 hours exposure, SRB"}}}
{"smiles": "COc1c(C)cc2c(c1O)[C@@H]1C3[C@@H]4SC[C@]5(NCCc6c5[nH]c5c(C)cccc65)C(=O)COC[C@@H](c5c6c(c(C)c(OC(C)=O)c54)OCO6)N3[C@@H](O)[C@H](C2)N1C", "note": "(some centres unmarked) [Compound 36]", "values": [{"measurement": "Skeletal", "setting": "[1]", "value": "2.71E−08"}, {"measurement": "Cell Viability (% inhibition)", "setting": "(HEPG2)", "value": 33, "unit": "% inhibition"}, {"measurement": "Myelo", "setting": "[2]", "value": "2.05E−07"}, {"measurement": "Heart", "setting": "[3]", "value": "8.86E−07"}, {"measurement": "GI50", "setting": "SK-OV3; Homo sapiens, SK-OV-3, 48 h, SK-OV3, 48 hours exposure, SRB", "value": 0.0507, "unit": "µM"}, {"measurement": "CC50", "setting": "SK-OV3; Homo sapiens, SK-OV-3, 48 h, read-out: LC50, SK-OV3, 48 hours exposure, SRB", "value": 13, "unit": "µM"}, {"measurement": "TGI", "setting": "SK-OV3; SK-OV3, 48 hours exposure, SRB", "value": "2.05E−07", "unit": "Molar"}, {"measurement": "inhibition at 450 min, 10 µM", "setting": "CYP2D6", "value": 15, "unit": "%"}, {"measurement": "Human Liver S9 Metabolic Stability (% remaining)", "setting": "[4]", "value": 2, "unit": "% remaining"}, {"measurement": "inhibition at 30 min, 10 µM", "setting": "CYP3A4", "value": 78, "unit": "%"}, {"measurement": "GI50", "setting": "DU145; DU145, 48 hours exposure, SRB", "value": 0.00541, "unit": "µM"}, {"measurement": "IC (TGI)", "setting": "DU145; DU145, 48 hours exposure, SRB", "value": 0.00939, "unit": "µM"}, {"measurement": "CC50", "setting": "DU145; read-out: LC50, DU145, 48 hours exposure, SRB", "value": 13, "unit": "µM"}, {"measurement": "GI50", "setting": "A549; A549, 48 hours exposure, SRB, read-out: GI50", "value": 0.0284, "unit": "µM"}, {"measurement": "IC (TGI)", "setting": "A549; A549, 48 hours exposure, SRB, read-out: TGI", "value": 0.0507, "unit": "µM"}, {"measurement": "CC50", "setting": "A549; read-out: LC50, A549, 48 hours exposure, SRB", "value": 0.0909, "unit": "µM"}, {"measurement": "GI50", "setting": "LOVO; 48 hours exposure, SRB", "value": 0.0273, "unit": "µM"}, {"measurement": "IC (TGI)", "setting": "LOVO; 48 hours exposure, SRB", "value": 0.0546, "unit": "µM"}, {"measurement": "CC50", "setting": "LOVO; read-out: LC50, LOVO, 48 hours exposure, SRB", "value": 0.109, "unit": "µM"}, {"measurement": "GI50", "setting": "IGROV-ET; [5]", "value": 0.0503, "unit": "µM"}, {"measurement": "IC (TGI)", "setting": "IGROV-ET; [5]", "value": 0.103, "unit": "µM"}, {"measurement": "CC50", "setting": "IGROV-ET; read-out: LC50, IGROV-ET, 48 hours exposure, SRB", "value": 0.13, "unit": "µM"}, {"measurement": "GI50", "setting": "PANC-1; PANC-1, 48 hours exposure, SRB", "value": 0.0421, "unit": "µM"}, {"measurement": "IC (TGI)", "setting": "PANC-1; PANC-1, 48 hours exposure, SRB", "value": 0.104, "unit": "µM"}, {"measurement": "CC50", "setting": "PANC-1; read-out: LC50, PANC-1, 48 hours exposure, SRB", "value": 13, "unit": "µM"}, {"measurement": "GI50", "setting": "LOVO-DOX; [6]", "value": 0.0704, "unit": "µM"}, {"measurement": "IC (TGI)", "setting": "LOVO-DOX; [6]", "value": 0.977, "unit": "µM"}, {"measurement": "CC50", "setting": "LOVO-DOX; read-out: LC50, LOVO-DOX, 48 hours exposure, SRB", "value": 13, "unit": "µM"}, {"measurement": "GI50", "setting": "LNCAP; 48 hours exposure, SRB", "value": 0.00614, "unit": "µM"}, {"measurement": "IC (TGI)", "setting": "LNCAP; 48 hours exposure, SRB", "value": 0.00948, "unit": "µM"}, {"measurement": "CC50", "setting": "LNCAP; read-out: LC50, LNCAP, 48 hours exposure, SRB", "value": 0.0251, "unit": "µM"}, {"measurement": "GI50", "setting": "HT29; HT29, 48 hours exposure, SRB", "value": 0.0618, "unit": "µM"}, {"measurement": "IC (TGI)", "setting": "HT29; HT29, 48 hours exposure, SRB", "value": 0.187, "unit": "µM"}, {"measurement": "CC50", "setting": "HT29; read-out: LC50, HT29, 48 hours exposure, SRB", "value": 13, "unit": "µM"}, {"measurement": "GI50", "setting": "IGROV; 48 hours exposure, SRB", "value": 0.00372, "unit": "µM"}, {"measurement": "IC (TGI)", "setting": "IGROV; 48 hours exposure, SRB", "value": 0.00721, "unit": "µM"}, {"measurement": "CC50", "setting": "IGROV; read-out: LC50, IGROV, 48 hours exposure, SRB", "value": 0.0271, "unit": "µM"}, {"measurement": "GI50", "setting": "MEL-28; MEL-28, 48 hours exposure, SRB", "value": 0.00216, "unit": "µM"}, {"measurement": "IC (TGI)", "setting": "MEL-28; MEL-28, 48 hours exposure, SRB", "value": 0.00523, "unit": "µM"}, {"measurement": "CC50", "setting": "MEL-28; read-out: LC50, MEL-28, 48 hours exposure, SRB", "value": 0.0126, "unit": "µM"}, {"measurement": "GI50", "setting": "SK-BR3; SK-BR3, 48 hours exposure, SRB", "value": 0.0118, "unit": "µM"}, {"measurement": "IC (TGI)", "setting": "SK-BR3; SK-BR3, 48 hours exposure, SRB", "value": 0.032, "unit": "µM"}, {"measurement": "CC50", "setting": "SK-BR3; read-out: LC50, SK-BR3, 48 hours exposure, SRB", "value": 0.0864, "unit": "µM"}, {"measurement": "GI50", "setting": "K562; K562, 48 hours exposure, SRB", "value": 0.00615, "unit": "µM"}, {"measurement": "IC (TGI)", "setting": "K562; K562, 48 hours exposure, SRB", "value": 0.00992, "unit": "µM"}, {"measurement": "CC50", "setting": "K562; read-out: LC50, K562, 48 hours exposure, SRB", "value": 0.109, "unit": "µM"}, {"measurement": "solubility", "setting": "physchem", "value": 26, "unit": "µM"}, {"measurement": "GI50", "setting": "H-MEC-1; [7]", "value": 0.0843, "unit": "µM"}, {"measurement": "IC (TGI)", "setting": "H-MEC-1; [7]", "value": 0.783, "unit": "µM"}, {"measurement": "CC50", "setting": "H-MEC-1; read-out: LC50, H-MEC-1, 48 hours exposure, SRB", "value": 13, "unit": "µM"}]}
